Source: patent US20060040871A1, “Bacterial transforming agent” (priority 2003, published 2006)
Where two headings read alike, the source gives them in different places.

How the values were obtained:
[1] = system: vancomycin-resistant enterococci (VRE); test: Activity of BTAs against vancomycin-resistant enterococci; type: cell-based
MRSA [2] = test: Antimicrobial plus BTA against recent clinical MRSA isolates (Table 7); type: cell-based, Staphylococcus aureus
Description: The four clinical isolates were isolated from patients during the first three months of 2003. […] An intermediate MRSA has been included, as methicillin-resistance has been achieved by means other than production of PBP2a.

VRE = test: Antimicrobial plus BTA against VRE (Table 7); type: cell-based, enterococci
MRSA [3] = test: Screening on Isosensitest agar with incorporated BTA and 10 μg methicillin discs; type: cell-based, Staphylococcus aureus
Protocol: To find substances related to GBE that might have increased potency, various substances, including those with additional glycine moieties and benzylates, have been screened. Screening was carried out using Isosensitest agar (Oxoid, UK) into which various levels of potential BTAs were incorporated at levels between 0.01 and 1.0%. The agar with incorporated BTA was then used in the manner of a standard antibiotic sensitivity test using 10 μg methicillin discs. The test organism was inoculated onto the agar surface at a concentration suitable to achieve confluent growth after 18 hours incubation at 30° C. After incubation, zone diameters were compared with that achieved by the control plate (Isosensitest alone) for each test organism.

[4] = system: MRSA with intermediate resistance to glycopeptides; test: MIC of vancomycin or teicoplanin for MRSA with intermediate resistance to glycopeptides grown with GBE or NAGly (Table 4); type: cell-based, Staphylococcus aureus; details: for MIC: Staphylococcus aureus
[5] = system: glycopeptide-resistant enterococci; details: cited from earlier work
[6] = cited from earlier work
[7] = system: vancomycin- and gentamicin-resistant Enterococcus faecium; test: microbe, parasite or virus in culture; type: cell-based; details: Enterococcus faecium, 0.0 (Control)
Description: The agents of the present invention are not limited to the reversal of resistance in Staphylococcus. The test strains in Table 5 are patient-isolates of vancomycin- and gentamicin-resistant Enterococcus faecium. At the time of isolation, they were commonly resistant to all clinically useable antimicrobial agents.

[8] = system: vancomycin- and gentamicin-resistant Enterococcus faecium; test: microbe, parasite or virus in culture; type: cell-based; details: ATCC29212, read-out: MIC of vancomycin, ATCC 29212 (vancomycin-sensitive reference strain), 0.0 (Control)
E. faecium = details: cited from earlier work
[9] = vanA, E. faecium and E. faecalis

N-carbamoylglycine (Hydantoic acid)
activity against vancomycin-resistant enterococci (VRE) [1]: low-level active

Nc1ccc(C(=O)NCC(=O)O)cc1 [Amino-HA, P-Amino Hippuric acid]
Cephalexin (antimicrobial plus BTA; quantity not named, MIC implied) (MRSA [2]; EMRSA-16, +BTA 0.01%): 3 µg/mL
Oxacillin (antimicrobial plus BTA; quantity not named, MIC implied) (MRSA [2]; EMRSA-16, +BTA 0.01%): 3 µg/mL
Cephalexin (antimicrobial plus BTA; quantity not named, MIC implied) (MRSA [2]; EMRSA-16, +BTA 0.1%): 1 µg/mL
Oxacillin (antimicrobial plus BTA; quantity not named, MIC implied) (MRSA [2]; EMRSA-16, +BTA 0.1%): 0.75 µg/mL
Vancomycin (antimicrobial plus BTA; quantity not named, MIC implied) (MRSA [2]; EMRSA-16, +BTA 0.1%): 0.25 µg/mL
Cephalexin (antimicrobial plus BTA; quantity not named, MIC implied) (MRSA [2]; EMRSA-17, +BTA 0.01%): 6 µg/mL
Oxacillin (antimicrobial plus BTA; quantity not named, MIC implied) (MRSA [2]; EMRSA-17, +BTA 0.01%): 6 µg/mL
Cephalexin (antimicrobial plus BTA; quantity not named, MIC implied) (MRSA [2]; EMRSA-17, +BTA 0.1%): 4 µg/mL
Oxacillin (antimicrobial plus BTA; quantity not named, MIC implied) (MRSA [2]; EMRSA-17, +BTA 0.1%): 1 µg/mL
Vancomycin (antimicrobial plus BTA; quantity not named, MIC implied) (MRSA [2]; EMRSA-17, +BTA 0.1%): 0.25 µg/mL
Cephalexin (antimicrobial plus BTA; quantity not named, MIC implied) (MRSA [2]; I-MRSA, +BTA 0.01%): 1.5 µg/mL
Oxacillin (antimicrobial plus BTA; quantity not named, MIC implied) (MRSA [2]; I-MRSA, +BTA 0.01%): 1.5 µg/mL
Cephalexin (antimicrobial plus BTA; quantity not named, MIC implied) (MRSA [2]; I-MRSA, +BTA 0.1%): 0.064 µg/mL
Oxacillin (antimicrobial plus BTA; quantity not named, MIC implied) (MRSA [2]; I-MRSA, +BTA 0.1%): 0.064 µg/mL
Vancomycin (antimicrobial plus BTA; quantity not named, MIC implied) (MRSA [2]; I-MRSA, +BTA 0.1%): < 0.25 µg/mL
Vancomycin (antimicrobial plus BTA; quantity not named, MIC implied) (VRE; +BTA 0.1%): 64 µg/mL
activity relative to Hippuric acid and GBE (MRSA [3]): improved activity

teicoplanin
MIC of teicoplanin ([4]; L265, EMRSA-16 (TISA), Control): 32 mg/L
MIC of teicoplanin ([4]; L266, EMRSA-16 (TISA), Control): 8 mg/L
MIC of teicoplanin ([4]; NCTC 12493, Control): 0.25 mg/L
level of teicoplanin to which resistance is conferred [5, 9]: ≥ 32 mg/L
level of teicoplanin to which resistance is conferred ([5]; vanB): ≤ 1.0
level of teicoplanin to which resistance is conferred ([5]; vanC1, vanC2, vanC3): ≤ 1.0
level of teicoplanin to which resistance is conferred ([5]; vanE, E. faecalis): 0.5 mg/L
half life [6]: 12 h

CCOC(=O)CNC(=O)CN [GGEE, Glycylglycine ethyl ester]
Oxacillin (antimicrobial plus BTA; quantity not named, MIC implied) (MRSA [2]; EMRSA-16, +BTA 0.01%): 1.5 µg/mL
Cephalexin (antimicrobial plus BTA; quantity not named, MIC implied) (MRSA [2]; EMRSA-16, +BTA 0.1%): 1.5 µg/mL
Oxacillin (antimicrobial plus BTA; quantity not named, MIC implied) (MRSA [2]; EMRSA-16, +BTA 0.1%): 1 µg/mL
Cephalexin (antimicrobial plus BTA; quantity not named, MIC implied) (MRSA [2]; EMRSA-16, +BTA 1.0%): 0.75 µg/mL
Oxacillin (antimicrobial plus BTA; quantity not named, MIC implied) (MRSA [2]; EMRSA-16, +BTA 1.0%): 0.75 µg/mL
Vancomycin (antimicrobial plus BTA; quantity not named, MIC implied) (MRSA [2]; EMRSA-16, +BTA 1.0%): 0.25 µg/mL
Oxacillin (antimicrobial plus BTA; quantity not named, MIC implied) (MRSA [2]; EMRSA-17, +BTA 0.01%): 3 µg/mL
Cephalexin (antimicrobial plus BTA; quantity not named, MIC implied) (MRSA [2]; EMRSA-17, +BTA 0.1%): 2 µg/mL
Oxacillin (antimicrobial plus BTA; quantity not named, MIC implied) (MRSA [2]; EMRSA-17, +BTA 0.1%): 2 µg/mL
Cephalexin (antimicrobial plus BTA; quantity not named, MIC implied) (MRSA [2]; EMRSA-17, +BTA 1.0%): 1 µg/mL
Oxacillin (antimicrobial plus BTA; quantity not named, MIC implied) (MRSA [2]; EMRSA-17, +BTA 1.0%): 1 µg/mL
Vancomycin (antimicrobial plus BTA; quantity not named, MIC implied) (MRSA [2]; EMRSA-17, +BTA 1.0%): 0.25 µg/mL
Oxacillin (antimicrobial plus BTA; quantity not named, MIC implied) (MRSA [2]; I-MRSA, +BTA 0.01%): 1 µg/mL
Cephalexin (antimicrobial plus BTA; quantity not named, MIC implied) (MRSA [2]; I-MRSA, +BTA 0.1%): 0.75 µg/mL
Oxacillin (antimicrobial plus BTA; quantity not named, MIC implied) (MRSA [2]; I-MRSA, +BTA 0.1%): 0.75 µg/mL
Cephalexin (antimicrobial plus BTA; quantity not named, MIC implied) (MRSA [2]; I-MRSA, +BTA 1.0%): 0.38 µg/mL
Oxacillin (antimicrobial plus BTA; quantity not named, MIC implied) (MRSA [2]; I-MRSA, +BTA 1.0%): 0.32 µg/mL
Vancomycin (antimicrobial plus BTA; quantity not named, MIC implied) (MRSA [2]; I-MRSA, +BTA 1.0%): < 0.25 µg/mL
Vancomycin (antimicrobial plus BTA; quantity not named, MIC implied) (VRE; +BTA 1.0%): 64 µg/mL
activity against VRE and MRSA relative to glycylglycine benzyl ester (MRSA [3]; VRE and MRSA): greater activity

CN[C@H](CC(C)C)C(=O)N[C@H]1C(=O)N[C@@H](CC(N)=O)C(=O)N[C@H]2C(=O)N[C@H]3C(=O)N[C@H](C(=O)N[C@H](C(=O)O)c4cc(O)cc(O)c4-c4cc3ccc4O)[C@H](O)c3ccc(c(Cl)c3)Oc3cc2cc(c3O[C@@H]2O[C@H](CO)[C@@H](O)[C@H](O)[C@H]2O[C@H]2C[C@](C)(N)[C@H](O)[C@H](C)O2)Oc2ccc(cc2Cl)[C@H]1O [vancomycin]
MIC ([4]; MRSA / NCTC 12493, read-out: MIC of vancomycin, NCTC 12493, Control): 0.5 µg/mL
MIC ([4]; MRSA / NCTC 12493, read-out: MIC of vancomycin, reference strain NCTC 12493, as stated in text on Table 1): 2 µg/mL
MIC ([4]; MRSA / VISA, read-out: MIC of vancomycin, L266 (first line), EMRSA-17 (VISA), Control): 8 µg/mL
MIC ([4]; MRSA / VISA, read-out: MIC of vancomycin, L266 (second line), EMRSA-17 (VISA), Control): 8 µg/mL
MIC ([7]; read-out: MIC of vancomycin, BBC): 32 µg/mL
MIC ([7]; read-out: MIC of vancomycin, E254): 128 µg/mL
MIC ([7]; read-out: MIC of vancomycin, E267): 128 µg/mL
MIC ([7]; read-out: MIC of vancomycin, E271): 64 µg/mL
MIC ([7]; read-out: MIC of vancomycin, E285): 64 µg/mL
MIC ([7]; read-out: MIC of vancomycin, E297): 128 µg/mL
MIC ([7]; read-out: MIC of vancomycin, GBC): 64 µg/mL
MIC ([7]; read-out: MIC of vancomycin, S226): 128 µg/mL
MIC ([7]; read-out: MIC of vancomycin, S227): 128 µg/mL
MIC ([7]; read-out: MIC of vancomycin, S283): 64 µg/mL
MIC ([7]; read-out: MIC of vancomycin, S302): 64 µg/mL
MIC ([7]; read-out: MIC of vancomycin, S315): 64 µg/mL
MIC ([7]; read-out: MIC of vancomycin, S317): 128 µg/mL
MIC ([7]; read-out: MIC of vancomycin, S319): 64 µg/mL
MIC ([7]; read-out: MIC of vancomycin, S333): 64 µg/mL
MIC ([7]; read-out: MIC of vancomycin, S337): 32 µg/mL
MIC ([7]; read-out: MIC of vancomycin, S393): 64 µg/mL
MIC ([7]; read-out: MIC of vancomycin, S497): 64 µg/mL
MIC ([7]; read-out: MIC of vancomycin, S556): 64 µg/mL
MIC ([7]; read-out: MIC of vancomycin, WBC): 64 µg/mL
Vancomycin (antimicrobial plus BTA; quantity not named, MIC implied) (MRSA [2]; EMRSA-16, vancomycin alone): 1 µg/mL
Vancomycin (antimicrobial plus BTA; quantity not named, MIC implied) (MRSA [2]; EMRSA-17, vancomycin alone): 2 µg/mL
Vancomycin (antimicrobial plus BTA; quantity not named, MIC implied) (MRSA [2]; I-MRSA, vancomycin alone): 0.5 µg/mL
Vancomycin (antimicrobial plus BTA; quantity not named, MIC implied) (VRE; vancomycin alone): > 256 µg/mL
MIC [8]: 2 µg/mL
level of vancomycin to which resistance is conferred [5, 9]: ≥ 256 mg/L
level of vancomycin to which resistance is conferred ([5]; vanE, E. faecalis): 16 mg/L

quinupristin/dalfopristin
E. faecium isolates against which active (MIC≦2 mg/L) (E. faecium): 86%
